Here are results for 77 sequences from the supplement of paper PMC11208160.

The data set in a line: recombinant barcode read abundance after kanamycin selection (control-corrected) (log10(CPM+1)); higher = more efficient recombination; sequences stand for … in AGTGCAGAGAAAATCGGCCAGTTTTCTCTGCCTGCAGTCCGCATGCCGT…AGATTTATGCAGCGGACTGCCTTTCTCCCAAAGTGATAAACCGGACAGTATCATGGACCGGTTTTCCCGGTAATCCGTATTTGCAAGGTTGGTTTCACT; site = the 11-nt target. In short, it runs like this:
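In a pooled screen in E. coli, targets were paired with target-binding loops of the IS621 bridge RNA. Each oligo carried a promoter, a target, a barcode and the first 104 bridge RNA bases driven by J23119, and was Gibson-cloned into a vector holding the remaining 73 bp and a T7-inducible recombinase before co-electroporation with a donor plasmid. Duplicate platings went onto chloramphenicol/ampicillin LB agar as the control or onto chloramphenicol/ampicillin/kanamycin with 0.1 mM IPTG. Recombination efficiency is the averaged, control-corrected count per million of barcodes at recombinant junctions, given as log10(CPM+1).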
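Note: IS621 recombinase and bridge RNA in Escherichia coli cells.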

Regarding “GAGAGAACTTGGGTTCTAACCTGTTGCCT (site CCATAGGCTCA)”, the “recombinant barcode read abundance (log10)” value stood at 0.0856.

Turning to “GAGAGAACTTGGGTTCTAACCTGTTGCCT (site GAGAGAACTAG)”, the “recombinant barcode read abundance (log10)” value was determined as 1.51.

As for “GAGAGGTCTTGGGTTCTAACCTGTTGCGT (site GAGAGGTCTAA)”, the “recombinant barcode read abundance (log10)” value came out at 0.502.

On to “GAGAGGTCTTGGGTTCTAACCTGTTGCGT (site GAGAGGTCTAC)”, for which the “recombinant barcode read abundance (log10)” value came to 2.5.

On to “GAGAGGTCTTGGGTTCTAACCTGTTGCGT (site GAGAGGTCTAG)”, for which the “recombinant barcode read abundance (log10)” value stood at 0.613.

On to “GAGAGGTCTTGGGTTCTAACCTGTTGCGT (site GAGAGGTCTAT)”, for which the “recombinant barcode read abundance (log10)” value was 1.53.

Consider “GAGAGTCCTTGGGTTCTAACCTGTTGCCA (site ATTGAGACTAA)”, for which the “recombinant barcode read abundance (log10)” value is 0.281.

On to “GAGAGTCCTTGGGTTCTAACCTGTTGCCA (site GAGAGTCCTTG)”, for which the “recombinant barcode read abundance (log10)” value was 1.24.

“GAGATTCCTTGGGTTCTAACCTGTTGCCT (site CAGATTCCTAG)”: the “recombinant barcode read abundance (log10)” value turned out to be 0.0463.

“GAGATTCCTTGGGTTCTAACCTGTTGCCT (site GAGATTCCTAG)”: the “recombinant barcode read abundance (log10)” value was 0.399.

For “GAGCAAACTTGGGTTCTAACCTGTTGCCT (site GAGCAAACTAG)”, the “recombinant barcode read abundance (log10)” value was 1.2.

For “GAGCAAACTTGGGTTCTAACCTGTTGCCT (site GATCAATCTAG)”, the “recombinant barcode read abundance (log10)” value was found to be 0.16.

Take “GAGCATACTTGGGTTCTAACCTGTTGCCT (site GAGCATACTAG)”: the “recombinant barcode read abundance (log10)” value stood at 1.62.

In the case of “GAGCATACTTGGGTTCTAACCTGTTGCCT (site GAGGGTACTAG)”, the “recombinant barcode read abundance (log10)” value came to 0.0325.

With “GAGCCACCTTGGGTTCTAACCTGTTGCCT (site AAGCCACCTAG)”, the “recombinant barcode read abundance (log10)” value was 0.868.

Regarding “GAGCCACCTTGGGTTCTAACCTGTTGCCT (site CAGCCACCTAG)”, the “recombinant barcode read abundance (log10)” value was found to be 0.236.

In the case of “GAGCCACCTTGGGTTCTAACCTGTTGCCT (site GAGCCACCTAG)”, the “recombinant barcode read abundance (log10)” value was 1.48.

On to “GAGCCACCTTGGGTTCTAACCTGTTGCCT (site TAGCCACCTAG)”, for which the “recombinant barcode read abundance (log10)” value is 0.911.

As to “GAGCCGGCTTGGGTTCTAACCTGTTGCTT (site GAGACGGCTAA)”, the “recombinant barcode read abundance (log10)” value amounted to 0.0584.

With “GAGCCGGCTTGGGTTCTAACCTGTTGCTT (site GAGCCGGCTAA)”, the “recombinant barcode read abundance (log10)” value turned out to be 1.32.

For the sequence “GAGCCGGCTTGGGTTCTAACCTGTTGCTT (site GAGGCGGCTAA)”, the “recombinant barcode read abundance (log10)” value was determined as 0.3.

Turning to “GAGCCGGCTTGGGTTCTAACCTGTTGCTT (site GAGTCGGCTAA)”, the “recombinant barcode read abundance (log10)” value came out at 0.337.

In the case of “GAGCGAGCTTGGGTTCTAACCTGTTGCGG (site GAGCGAGCTCA)”, the “recombinant barcode read abundance (log10)” value came out at 0.0195.

With “GAGCGAGCTTGGGTTCTAACCTGTTGCGG (site GAGCGAGCTCC)”, the “recombinant barcode read abundance (log10)” value amounted to 1.13.

“GAGCGAGCTTGGGTTCTAACCTGTTGCGG (site GAGCGAGCTCG)”: the “recombinant barcode read abundance (log10)” value stood at 0.196.

“GAGCGAGCTTGGGTTCTAACCTGTTGCGG (site GAGCGAGCTCT)”: the “recombinant barcode read abundance (log10)” value is 1.07.

Consider “GAGCGAGCTTGGGTTCTAACCTGTTGCTG (site GAGCGAGCTCA)”, for which the “recombinant barcode read abundance (log10)” value is 1.5.

In the case of “GAGCGAGCTTGGGTTCTAACCTGTTGCTG (site GAGCGAGCTCC)”, the “recombinant barcode read abundance (log10)” value came to 0.41.

In the case of “GAGCGAGCTTGGGTTCTAACCTGTTGCTG (site GAGCGAGCTCG)”, the “recombinant barcode read abundance (log10)” value came to 0.529.

In the case of “GAGCGAGCTTGGGTTCTAACCTGTTGCTG (site GAGCGAGCTCT)”, the “recombinant barcode read abundance (log10)” value was 1.25.

Consider “GAGCGCTCTTGGGTTCTAACCTGTTGCAG (site GAGCGCTCTCT)”, for which the “recombinant barcode read abundance (log10)” value was 1.42.

With “GAGCGCTCTTGGGTTCTAACCTGTTGCAG (site GAGTGCTCTCT)”, the “recombinant barcode read abundance (log10)” value was 0.0694.

On to “GAGCGTCCTTGGGTTCTAACCTGTTGCAG (site GAGCGTCCTCT)”, for which the “recombinant barcode read abundance (log10)” value was determined as 1.26.

For the sequence “GAGCGTCCTTGGGTTCTAACCTGTTGCAG (site GAGTTTCCTCT)”, the “recombinant barcode read abundance (log10)” value is 0.0296.

Consider “GAGCGTCCTTGGGTTCTAACCTGTTGCCG (site CAGTGTCCTCG)”, for which the “recombinant barcode read abundance (log10)” value was 0.0924.

Consider “GAGCGTCCTTGGGTTCTAACCTGTTGCCG (site GAGCGTCCTCG)”, for which the “recombinant barcode read abundance (log10)” value stood at 0.739.

Turning to “GAGCGTTCTTGGGTTCTAACCTGTTGCCT (site GAGCGCTCTCG)”, the “recombinant barcode read abundance (log10)” value was 0.199.

As to “GAGCGTTCTTGGGTTCTAACCTGTTGCCT (site GAGCGTTCTAG)”, the “recombinant barcode read abundance (log10)” value was 1.47.

With “GAGCTACCTTGGGTTCTAACCTGTTGCCC (site GAGCTACCTAG)”, the “recombinant barcode read abundance (log10)” value is 1.48.

Turning to “GAGCTACCTTGGGTTCTAACCTGTTGCCC (site GAGCTACCTCG)”, the “recombinant barcode read abundance (log10)” value is 0.199.

In the case of “GAGCTACCTTGGGTTCTAACCTGTTGCCC (site GAGCTACCTGG)”, the “recombinant barcode read abundance (log10)” value was 1.72.

As for “GAGCTACCTTGGGTTCTAACCTGTTGCCC (site GAGCTACCTTG)”, the “recombinant barcode read abundance (log10)” value worked out at 0.85.

Take “GAGCTAGCTTGGGTTCTAACCTGTTGCGT (site GAGCTAGCTAC)”: the “recombinant barcode read abundance (log10)” value was found to be 2.41.

For “GAGCTAGCTTGGGTTCTAACCTGTTGCGT (site GAGCTAGCTGC)”, the “recombinant barcode read abundance (log10)” value came out at 0.155.

For the sequence “GAGGACTCTTGGGTTCTAACCTGTTGCCG (site GAGGACTCTAG)”, the “recombinant barcode read abundance (log10)” value was determined as 2.41.

Regarding “GAGGACTCTTGGGTTCTAACCTGTTGCCG (site GAGGACTCTCG)”, the “recombinant barcode read abundance (log10)” value is 2.32.

On to “GAGGACTCTTGGGTTCTAACCTGTTGCCG (site GAGGACTCTGG)”, for which the “recombinant barcode read abundance (log10)” value came out at 0.458.

Turning to “GAGGACTCTTGGGTTCTAACCTGTTGCCG (site GAGGACTCTTG)”, the “recombinant barcode read abundance (log10)” value was found to be 0.476.

Take “GAGGCTACTTGGGTTCTAACCTGTTGCAT (site ACAAGGGCTCA)”: the “recombinant barcode read abundance (log10)” value is 0.0274.

Regarding “GAGGCTACTTGGGTTCTAACCTGTTGCAT (site GAGGCTACTAT)”, the “recombinant barcode read abundance (log10)” value amounted to 1.26.

In the case of “GAGGCTCCTTGGGTTCTAACCTGTTGCCC (site GAGGCTCCTAG)”, the “recombinant barcode read abundance (log10)” value is 0.372.

Regarding “GAGGCTCCTTGGGTTCTAACCTGTTGCCC (site GAGGCTCCTCG)”, the “recombinant barcode read abundance (log10)” value worked out at 0.174.

For “GAGGCTCCTTGGGTTCTAACCTGTTGCCC (site GAGGCTCCTGG)”, the “recombinant barcode read abundance (log10)” value was found to be 1.26.

On to “GAGGCTCCTTGGGTTCTAACCTGTTGCCC (site GAGGCTCCTTG)”, for which the “recombinant barcode read abundance (log10)” value came out at 0.104.

Turning to “GAGGGCACTTGGGTTCTAACCTGTTGCCA (site GAGAGCACTTG)”, the “recombinant barcode read abundance (log10)” value is 0.074.

In the case of “GAGGGCACTTGGGTTCTAACCTGTTGCCA (site GAGGGCACTTG)”, the “recombinant barcode read abundance (log10)” value was found to be 0.917.

Regarding “GAGGGCCCTTGGGTTCTAACCTGTTGCTG (site GAGGGCCCTCA)”, the “recombinant barcode read abundance (log10)” value is 2.8.

Take “GAGGGCCCTTGGGTTCTAACCTGTTGCTG (site GAGGGCCCTCC)”: the “recombinant barcode read abundance (log10)” value stood at 0.808.

“GAGGGCCCTTGGGTTCTAACCTGTTGCTG (site GAGGGCCCTCG)”: the “recombinant barcode read abundance (log10)” value was 2.03.

As for “GAGGGCCCTTGGGTTCTAACCTGTTGCTG (site GAGGGCCCTCT)”, the “recombinant barcode read abundance (log10)” value was 1.56.

Turning to “GAGGGCTCTTGGGTTCTAACCTGTTGCGG (site AGTTCACCTTA)”, the “recombinant barcode read abundance (log10)” value came to 0.0921.

Consider “GAGGGCTCTTGGGTTCTAACCTGTTGCGG (site GAGGGCTCTCC)”, for which the “recombinant barcode read abundance (log10)” value worked out at 2.73.

“GAGGGGTCTTGGGTTCTAACCTGTTGCAC (site CAGGCGTCTGT)”: the “recombinant barcode read abundance (log10)” value was found to be 0.122.

“GAGGGGTCTTGGGTTCTAACCTGTTGCAC (site GAGGGGTCTGT)”: the “recombinant barcode read abundance (log10)” value amounted to 2.81.

In the case of “GAGGGTCCTTGGGTTCTAACCTGTTGCAT (site GAGGGTCCTAA)”, the “recombinant barcode read abundance (log10)” value was 0.573.

Regarding “GAGGGTCCTTGGGTTCTAACCTGTTGCAT (site GAGGGTCCTAC)”, the “recombinant barcode read abundance (log10)” value was found to be 0.542.

In the case of “GAGGGTCCTTGGGTTCTAACCTGTTGCAT (site GAGGGTCCTAG)”, the “recombinant barcode read abundance (log10)” value was 1.65.

“GAGGGTCCTTGGGTTCTAACCTGTTGCAT (site GAGGGTCCTAT)”: the “recombinant barcode read abundance (log10)” value came out at 2.74.

For “GAGGTAACTTGGGTTCTAACCTGTTGCAC (site GAGGTAACTGT)”, the “recombinant barcode read abundance (log10)” value stood at 1.66.

As to “GAGGTAACTTGGGTTCTAACCTGTTGCAC (site TGTACGCCTAG)”, the “recombinant barcode read abundance (log10)” value worked out at 0.0446.

In the case of “GAGGTAACTTGGGTTCTAACCTGTTGCCT (site GAAGTAACTAG)”, the “recombinant barcode read abundance (log10)” value was found to be 0.0669.

For “GAGGTAACTTGGGTTCTAACCTGTTGCCT (site GACGTAACTAG)”, the “recombinant barcode read abundance (log10)” value is 1.23.

“GAGGTAACTTGGGTTCTAACCTGTTGCCT (site GAGGTAACTAG)”: the “recombinant barcode read abundance (log10)” value is 0.0487.

For the sequence “GAGGTAACTTGGGTTCTAACCTGTTGCCT (site GATGTAACTAG)”, the “recombinant barcode read abundance (log10)” value worked out at 0.822.

Regarding “GAGTACTCTTGGGTTCTAACCTGTTGCTA (site GAGTACTCTTA)”, the “recombinant barcode read abundance (log10)” value is 1.8.

With “GAGTACTCTTGGGTTCTAACCTGTTGCTA (site GAGTCTTCTTA)”, the “recombinant barcode read abundance (log10)” value was 0.00735.

Regarding “GAGTAGTCTTGGGTTCTAACCTGTTGCTT (site GAGTAGACTAA)”, the “recombinant barcode read abundance (log10)” value worked out at 0.941.
